Results as given in publication PMC8073005, “Antifungal Activity and DNA Topoisomerase Inhibition of Hydrolysable Tannins from Punica granatum L” (International Journal of Molecular Sciences, 2021).
Values after ≈ are worked out from the molar mass of the structure shown. Values joined by “and” are separate entries in the source; they are usually repeats but may differ in a detail not shown here. Equal entries are not always repeated. Where two headings read alike, the source gives them in different places.

Tests used:
[1] = system: Cryptococcus var. grubii H99 serotype A; experiment: MIC, broth microdilution (human pathogens); format: cell-based; conditions: Cryptococcus var. grubii H99 serotype A; SDB, 30 °C, 48 h; read-out: Minimum inhibitory concentration (MIC)
[2] = system: Candida albicans SC 5314; experiment: MIC, broth microdilution (human pathogens); format: cell-based; conditions: SC5314; Candida albicans SC 5314; SDB, 30 °C, 48 h; read-out: Minimum inhibitory concentration (MIC)
[3] = system: Candida strains; experiment: Agar Disk Diffusion Assay, Candida strains; format: cell-based; conditions: for share of Candida strains with inhibition zone from 21 to 30 mm: 25 μg; for zone of inhibition at 25 µg/disc: positive controls, for the stated share of Candida strains
[4] = system: Saccharomyces cerevisiae 42; experiment: MIC, broth microdilution (human pathogens); format: cell-based; conditions: Saccharomyces cerevisiae 42; SDB, 30 °C, 48 h; read-out: Minimum inhibitory concentration (MIC)
[5] = system: Cryptococcus 67; experiment: MIC, broth microdilution (human pathogens); format: cell-based; conditions: Cryptococcus 67; SDB, 30 °C, 48 h; read-out: Minimum inhibitory concentration (MIC)
[6] = system: Aspergillus candidus 3; experiment: MIC, broth microdilution (human pathogens); format: cell-based; conditions: Aspergillus candidus 3; SDB, 30 °C, 48 h; read-out: Minimum inhibitory concentration (MIC)
[7] = system: Aspergillus brasiliensis ATCC 16404; experiment: MIC, broth microdilution (human pathogens); format: cell-based; conditions: ATCC16404; Aspergillus brasiliensis ATCC 16404; SDB, 30 °C, 48 h; read-out: Minimum inhibitory concentration (MIC)
[8] = system: Cryptococcus neoformans B 3501; experiment: MIC, broth microdilution (human pathogens); format: cell-based; conditions: B3501; Cryptococcus neoformans B 3501; SDB, 30 °C, 48 h; read-out: Minimum inhibitory concentration (MIC)
[9] = system: Candida parapsilosis 7; experiment: MIC, broth microdilution (human pathogens); format: cell-based; conditions: Lodderomyces parapsilosis; Candida parapsilosis 7; SDB, 30 °C, 48 h; read-out: Minimum inhibitory concentration (MIC)
[10] = system: Candida zeylanoides 33; experiment: MIC, broth microdilution (human pathogens); format: cell-based; conditions: Dujonia zeylanoides; Candida zeylanoides 33; SDB, 30 °C, 48 h; read-out: Minimum inhibitory concentration (MIC)
[11] = system: Candida albicans ATCC 10321; experiment: MIC, broth microdilution (human pathogens); format: cell-based; conditions: ATCC10321; Candida albicans ATCC 10321; SDB, 30 °C, 48 h; read-out: Minimum inhibitory concentration (MIC)
[12] = system: Candida albicans 41; experiment: MIC, broth microdilution (human pathogens); format: cell-based; conditions: Candida albicans 41; SDB, 30 °C, 48 h; read-out: Minimum inhibitory concentration (MIC)
[13] = system: Candida albicans 44; experiment: MIC, broth microdilution (human pathogens); format: cell-based; conditions: Candida albicans 44; SDB, 30 °C, 48 h; read-out: Minimum inhibitory concentration (MIC)
[14] = system: Aspergillus candidus 25; experiment: MIC, broth microdilution (human pathogens); format: cell-based; conditions: Aspergillus candidus 25; SDB, 30 °C, 48 h; read-out: Minimum inhibitory concentration (MIC)
[15] = system: Cryptococcus neoformans ATCC 11240; experiment: MIC, broth microdilution (human pathogens); format: cell-based; conditions: ATCC11240; Cryptococcus neoformans ATCC 11240; SDB, 30 °C, 48 h; read-out: Minimum inhibitory concentration (MIC)
[16] = system: Candida albicans 1; experiment: MIC, broth microdilution (human pathogens); format: cell-based; conditions: Candida albicans 1; SDB, 30 °C, 48 h; read-out: Minimum inhibitory concentration (MIC)
[17] = system: Candida parapsilosis; experiment: MIC, broth microdilution (human pathogens); format: cell-based; conditions: Lodderomyces parapsilosis; Candida parapsilosis; SDB, 30 °C, 48 h; read-out: Minimum inhibitory concentration (MIC)
[18] = system: Candida albicans 40; experiment: MIC, broth microdilution (human pathogens); format: cell-based; conditions: Candida albicans 40; SDB, 30 °C, 48 h; read-out: Minimum inhibitory concentration (MIC)
[19] = system: Candida albicans 2; experiment: MIC, broth microdilution (human pathogens); format: cell-based; conditions: Candida albicans 2; SDB, 30 °C, 48 h; read-out: Minimum inhibitory concentration (MIC)
[20] = system: Candida albicans H; experiment: MIC, broth microdilution (human pathogens); format: cell-based; conditions: Candida albicans H; SDB, 30 °C, 48 h; read-out: Minimum inhibitory concentration (MIC)
[21] = molecular target: T1, topoisomerase I from Candida albicans (Candida albicans, UniProt Q00313); experiment: Topoisomerase I supercoiled DNA relaxation inhibition; format: biochemical
T1 sequence (Q00313 1-778): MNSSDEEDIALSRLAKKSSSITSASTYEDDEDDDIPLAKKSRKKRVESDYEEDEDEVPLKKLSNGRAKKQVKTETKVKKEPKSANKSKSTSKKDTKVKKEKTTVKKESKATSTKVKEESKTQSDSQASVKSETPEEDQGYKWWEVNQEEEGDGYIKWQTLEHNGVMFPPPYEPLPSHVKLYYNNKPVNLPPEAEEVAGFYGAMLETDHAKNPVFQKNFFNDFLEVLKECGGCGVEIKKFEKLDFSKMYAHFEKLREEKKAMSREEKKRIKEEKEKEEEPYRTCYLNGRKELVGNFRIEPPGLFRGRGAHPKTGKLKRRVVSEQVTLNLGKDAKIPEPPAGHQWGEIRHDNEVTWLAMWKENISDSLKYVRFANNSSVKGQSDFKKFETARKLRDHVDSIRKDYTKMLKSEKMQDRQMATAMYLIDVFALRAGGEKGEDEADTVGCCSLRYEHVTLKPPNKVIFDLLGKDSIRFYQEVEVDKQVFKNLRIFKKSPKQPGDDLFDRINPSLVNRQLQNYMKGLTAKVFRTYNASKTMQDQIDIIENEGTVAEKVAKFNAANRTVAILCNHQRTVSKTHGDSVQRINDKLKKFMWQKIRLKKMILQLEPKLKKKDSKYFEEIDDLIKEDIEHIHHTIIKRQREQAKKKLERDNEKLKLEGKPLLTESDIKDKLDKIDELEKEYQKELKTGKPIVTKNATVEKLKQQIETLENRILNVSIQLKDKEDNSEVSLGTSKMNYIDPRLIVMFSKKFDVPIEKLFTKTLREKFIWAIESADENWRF

[22] = system: Botrytis cinerea B2; experiment: MIC, micro-spectrophotometric growth assay (phytopathogens); format: cell-based; conditions: Botrytis cinerea B2; PDB, 24 °C, dark; imazalil at label dose; read-out: Minimum inhibitory concentration (MIC)
[23] = system: Alternaria alternata AL19; experiment: as above; format: cell-based; conditions: Alternaria alternata AL19; PDB, 24 °C, dark; imazalil at label dose; read-out: Minimum inhibitory concentration (MIC)
[24] = system: Coniella granati M0_C2; experiment: as above; format: cell-based; conditions: Coniella granati M0_C2; PDB, 24 °C, dark; imazalil at label dose; read-out: Minimum inhibitory concentration (MIC)
[25] = system: Colletotrichum acutatum s.s. M146-2; experiment: as above; format: cell-based, Colletotrichum acutatum sensu stricto; conditions: Colletotrichum acutatum s.s. M146-2, PDB, 24 °C, dark, imazalil at label dose, read-out: Minimum inhibitory concentration (MIC)
[26] = system: other genera tested (other fungi strains); experiment: Agar Disk Diffusion Assay, other genera; format: cell-based; conditions: 100 µg
Protocol: The antifungal activity of pomegranate compounds was evaluated against 19 clinically isolated fungal strains, including nine belonging to Candida albicans species, two belonging to Aspergillus genus, one belonging to Cryptococcus genus, and one Saccharomyces cerevisiae. The C. albicans strains were isolated on CHROMID agar, Aspergillus and Cryptococcus genus were isolated on SDA-CAF and one Saccharomyces cerevisiae on SDA. All the isolates were confirmed by matrix-assisted laser desorption ionization (MALDI) time-of-flight mass spectrometry (TOF/MS). Strains from the American Type Culture Collection (ATCC) were included. All strains were maintained in SDB with 20% (w/v) glycerol at −80 °C until use and sub-cultured in SDA before each test.
The preliminary determination of the antifungal activity of the target compounds (punicalagin, punicalin, ellagic acid, and gallic acid) from pomegranate was carried out by means of the agar disk diffusion assay, according to the standard procedure of the Clinical and Laboratory Standards Institute, with slight modifications. Plates containing SDA were uniformly spread with 100 μL of 10^3 conidia/mL of each strain suspension. […] Disks containing fluconazole (25 μg), amphotericin B (25 μg) and DMSO (20 μL) were used as the positive and the negative control, respectively. The antifungal activity of pomegranate compounds was evaluated by measuring the diameter of the clear inhibition zone formed right around the disks after 48 h incubation at 30 ± 1 °C. The experiment was carried out in triplicate.

Compound: OC(Cn1cncn1)(Cn1cncn1)c1ccc(F)cc1F [Fluconazole, fluconazole, reference compound]
- MIC [1]: 4.9 µM (≈ 1.5 µg/mL)
- MIC [2]: 9.8 µM (≈ 3 µg/mL)
- share of Candida strains with inhibition zone from 21 to 30 mm [3]: 73%
- zone of inhibition at 25 µg/disc [3]: 21 to 30 mm
- MIC [4]: 4.9 µM (≈ 1.5 µg/mL)
- MIC [5]: 9.8 µM (≈ 3 µg/mL)
- MIC [6]: 9.8 µM (≈ 3 µg/mL)
- MIC [7]: 4.9 µM (≈ 1.5 µg/mL)
- MIC [8]: 4.9 µM (≈ 1.5 µg/mL)
- MIC [9]: 19.6 µM (≈ 6 µg/mL)
- MIC [10]: 19.6 µM (≈ 6 µg/mL)
- MIC [11]: 40.8 µM (≈ 12.5 µg/mL)
- MIC [12]: 81.6 µM (≈ 25 µg/mL)
- MIC [13]: 81.6 µM (≈ 25 µg/mL)
- MIC [14]: 9.8 µM (≈ 3 µg/mL)
- MIC [15]: 4.9 µM (≈ 1.5 µg/mL)
- MIC [16]: 81.6 µM (≈ 25 µg/mL)
- MIC [17]: 9.8 µM (≈ 3 µg/mL)
- MIC [18]: 163 µM (≈ 50 µg/mL)
- MIC [19]: 163 µM (≈ 50 µg/mL)
- MIC [20]: 81.6 µM (≈ 25 µg/mL)

Compound: C[C@@H]1[C@H](O)[C@@H](C)/C=C/C=C/C=C/C=C/C=C/C=C/C=C/[C@H](O[C@@H]2O[C@H](C)[C@@H](O)[C@H](N)[C@@H]2O)C[C@@H]2O[C@](O)(C[C@@H](O)C[C@@H](O)[C@H](O)CC[C@@H](O)C[C@@H](O)CC(=O)O[C@H]1C)C[C@H](O)[C@H]2C(=O)O [Amphotericin B, amphotericin B, reference compound]
- MIC [1]: 0.1 µM (≈ 0.0924 µg/mL)
- MIC [2]: 0.1 µM (≈ 0.0924 µg/mL)
- share of Candida strains with inhibition zone from 21 to 30 mm [3]: 46%
- zone of inhibition at 25 µg/disc [3]: 21 to 30 mm
- MIC [4]: 1.1 µM (≈ 1.02 µg/mL)
- MIC [5]: 0.1 µM (≈ 0.0924 µg/mL)
- MIC [6]: 0.3 µM (≈ 0.277 µg/mL)
- MIC [7]: 0.1 µM (≈ 0.0924 µg/mL)
- MIC [8]: 0.1 µM (≈ 0.0924 µg/mL)
- MIC [9]: 0.3 µM (≈ 0.277 µg/mL)
- MIC [10]: 0.1 µM (≈ 0.0924 µg/mL)
- MIC [11]: 0.1 µM (≈ 0.0924 µg/mL)
- MIC [12]: 0.3 µM (≈ 0.277 µg/mL)
- MIC [13]: 2.2 µM (≈ 2.03 µg/mL)
- MIC [14]: 0.3 µM (≈ 0.277 µg/mL)
- MIC [15]: 0.1 µM (≈ 0.0924 µg/mL)
- MIC [16]: 2.2 µM (≈ 2.03 µg/mL)
- MIC [17]: 0.1 µM (≈ 0.0924 µg/mL)
- MIC [18]: 0.3 µM (≈ 0.277 µg/mL)
- MIC [19]: 4.3 µM (≈ 3.97 µg/mL)
- MIC [20]: 4.3 µM (≈ 3.97 µg/mL)

Compound: CC[C@@]1(O)C(=O)OCc2c1cc1n(c2=O)Cc2cc3ccccc3nc2-1 [Camptothecin, camptothecin, reference compound]
- IC50 [21]: 17.8 ± 0.7 µM

Compound: C=CCOC(Cn1ccnc1)c1ccc(Cl)cc1Cl (stereo not shown) [Imazalil, imazalil, reference compound]
- MIC [22]: 0.3 µM (≈ 0.0892 µg/mL)
- MIC [23]: 0.3 µM (≈ 0.0892 µg/mL)
- MIC [24]: 0.3 µM (≈ 0.0892 µg/mL)
- MIC ([25]; S.S.M1462): 0.3 µM (≈ 0.0892 µg/mL)

Compound: O=C(O)c1cc(O)c(O)c(O)c1 [Gallic Acid, gallic acid]
- MIC [1]: 4.4 µM (≈ 0.749 µg/mL)
- MIC [2]: 294 µM (≈ 50 µg/mL)
- share of Candida strains with inhibition zone from 11 to 20 mm ([3]; 100 µg): 73%
- MIC [4]: 588 µM (≈ 100 µg/mL)
- MIC [22]: 587.8 µM and 588 µM
- MIC [5]: 8.8 µM (≈ 1.5 µg/mL)
- MIC [6]: 17.6 µM (≈ 2.99 µg/mL)
- MIC [7]: 8.8 µM (≈ 1.5 µg/mL)
- MIC [8]: 4.4 µM (≈ 0.749 µg/mL)
- MIC [9]: 588 µM (≈ 100 µg/mL)
- MIC [10]: 588 µM (≈ 100 µg/mL)
- MIC [11]: 294 µM (≈ 50 µg/mL)
- MIC [12]: 294 µM (≈ 50 µg/mL)
- MIC [13]: 294 µM (≈ 50 µg/mL)
- MIC [14]: 17.6 µM (≈ 2.99 µg/mL)
- MIC [15]: 4.4 µM (≈ 0.749 µg/mL)
- MIC [23]: 587.8 µM and 588 µM
- MIC [24]: 587.8 µM and 588 µM
- MIC [16]: 294 µM (≈ 50 µg/mL)
- MIC [17]: 294 µM (≈ 50 µg/mL)
- MIC [18]: 588 µM (≈ 100 µg/mL)
- MIC [19]: 294 µM (≈ 50 µg/mL)
- MIC [20]: 588 µM (≈ 100 µg/mL)
- MIC [25]: 587.8 µM (≈ 100 µg/mL)
- MIC ([25]; S.S.M1462): 588 µM (≈ 100 µg/mL)
- share of other fungi strains with inhibition zone from 11 to 20 mm [26]: 25%
